The subject of the test is MTT (mouse pheochromocytoma). Nature of the test: IC50 of cell viability (ATP content). The settings on record: (24 or 48 h). In a few lines: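 MTT mouse pheochromocytoma cells were seeded into white 1536-well plates at 5 µl per well from a 200,000 cells/ml suspension in DMEM with 5% FBS and 1% horse serum, then cultured overnight at 37°C, 5% CO2. A pintool added 23 nl of library compound in DMSO at 8 concentrations (final 0.5 nM to 46 µM) for 24 or 48 hrs, and CellTiter-Glo ATP luminescence was read after 15 minutes. Signals were scaled so that positive-control wells equalled 100% and DMSO wells 0%. IC50 values were derived by fitting a four-parameter logistic curve.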

Structures are written as SMILES. Where a name gives a salt, the structure may show the parent alone. Some results are limits rather than exact numbers.

On to `C[N+]1(C)CCN(C[C@@](O)(c2ccccc2)C2CCCCC2)CC1` [Hexocyclium methosulfate], for which the “IC50 of cell viability” value was above 46 µM.

For the molecule `CC(c1ncncc1F)[C@](O)(Cn1cncn1)c1ccc(F)cc1F` (some centres not stated) [Voriconazole], the “IC50 of cell viability” value was above 46 µM.

On to `Cn1c(=O)c2c(ncn2CCOC(=O)C(C)(C)Oc2ccc(Cl)cc2)n(C)c1=O` [Theofibrate], for which the “IC50 of cell viability” value is above 46 µM.

`CC1=C(/C=C/C(C)=C/C=C/C(C)=C/C(=O)Oc2c(C)c(C)c3c(c2C)CC[C@@](C)(CCC[C@H](C)CCC[C@H](C)CCCC(C)C)O3)C(C)(C)CCC1` [TOCORETINATE]: the “IC50 of cell viability” value was above 46 µM.

For the molecule `CCCCCCCCCCCCCCCCCCCCCCO` [DOCOSANOL], the “IC50 of cell viability” value is above 46 µM.

In the case of `CO[C@H]1[C@@H](O[C@@H]2O[C@@H](C)[C@@H](O[C@H]3C[C@](C)(O)[C@H](O)[C@H](C)O3)[C@@H](N(C)C)[C@H]2O)[C@H](CC=O)C[C@@H](C)[C@@H](O[C@H]2CC[C@H](N(C)C)[C@H](C)O2)/C=C\C=C/C[C@@H](C)OC(=O)C[C@H]1O` [Spiramycin], the “IC50 of cell viability” value was above 46 µM.

For `CC1=NC=C2C\N=C(\C3=CC=CC=C3F)C4=CC(=CC=C4[N]12)Cl` [MIDAZOLAM HYDROCHLORIDE], the “IC50 of cell viability” value is above 46 µM.

Consider `C[C@@H](Cc1ccccc1)NCCC(c1ccccc1)c1ccccc1.C[C@H](O)C(=O)O` [Prenylamine lactate], for which the “IC50 of cell viability” value was above 46 µM.

For the molecule `O=C(O)[C@@H](O)[C@@H](O)[C@@H](O[C@@H]1O[C@@H](CO)[C@@H](O)[C@@H](O)[C@H]1O)[C@@H](O)CO` [Lactobionic acid], the “IC50 of cell viability” value is above 46 µM.

As for `C[C@@H]1O[C@@H](O[C@@H]2\C=C/C=C\C=C/C=C\C[C@H](C)OC(=O)/C=C\[C@H]3O[C@@H]3C[C@H](O)C[C@]3(O)C[C@@H](O)[C@@H](C(=O)O)[C@H](C2)O3)[C@H](O)[C@H](N)[C@@H]1O` [Natamycin], the “IC50 of cell viability” value was above 46 µM.

In the case of `CCCCCCCCCC(=O)NO` [DECANOHYDROXAMIC ACID], the “IC50 of cell viability” value was above 46 µM.

With `COC(=O)C1C2CC3c4[nH]c5cc(OC)ccc5c4CCN3CC2CC(OC)C1OC` (configuration not stated) [METOSERPATE HYDROCHLORIDE], the “IC50 of cell viability” value was above 46 µM.

Turning to `CCOP(=S)(OCC)Oc1cc(C)nc(C(C)C)n1` [Diazinon], the “IC50 of cell viability” value is above 46 µM.

As for `CC(C)(Oc1ccc(C2CC2(Cl)Cl)cc1)C(=O)O` (configuration not stated) [Ciprofibrate], the “IC50 of cell viability” value is above 46 µM.

In the case of `C[N+](C)(C)CCOP(=O)([O-])OP(=O)([O-])OCC1OC(n2ccc(N)nc2=O)[C@H](O)[C@@H]1O` (some centres not stated) [Cytidine 5'-diphosphocholine sodium salt hydrate], the “IC50 of cell viability” value is above 46 µM.

As for `Cc1cccc(Cc2c[nH]cn2)c1C` [Detomidine], the “IC50 of cell viability” value was above 46 µM.

As for `Cc1cc(CC(=O)O)c(C)n1-c1ccc(Cl)cc1` [Clopirac], the “IC50 of cell viability” value is above 46 µM.

As for `CC(C)(C)NCC(O)COc1ccc(NC(=O)NC2CCCCC2)cc1` (configuration not stated) [TALINOLOLUM], the “IC50 of cell viability” value was above 46 µM.

Consider `O=C1CN(/N=C/c2ccc([N+](=O)[O-])o2)C(=O)N1` [Nitrofurantoin], for which the “IC50 of cell viability” value is above 46 µM.

For the molecule `NC[C@@H]1O[C@@H](O[C@H]2[C@@H](O)[C@H](O[C@@H]3O[C@@H](CO)[C@H](O)[C@H](N)[C@@H]3O)[C@@H](N)C[C@H]2N)[C@H](O)[C@H](O)[C@@H]1O` [Kanamycin A sulfate], the “IC50 of cell viability” value is above 46 µM.

Turning to `CC1(C)[C@@H]2CC[C@@]1(C)C(=O)C2` [Camphor], the “IC50 of cell viability” value is above 46 µM.

`CCN(CC)CCNC(=O)c1ccc(NC(C)=O)cc1.Cl` [ACECAINIDE HYDROCHLORIDE]: the “IC50 of cell viability” value is above 46 µM.

(Values after the supplement of paper PMC3974653.)
